Earlier results in patent US6440950B1, “Selective and non-invasive visualization or treatment of vasculature” (The Johns Hopkins University, priority 1994, dated 2002).

Assays:
[1] = used intraperitonially in a few patients
[2] = in a number of species
[3] = in vivo

time to removal from the blood [3]: ≤ 24 h
water solubility: water soluble
Substance: aluminum phthalocyanine tetrasulfonate [AlPcS4]
side effects [1]: no side effects have been reported
toxicity [2]: non-toxic
